Laboratory results: US8883963B2 (Cadila Healthcare Limited, priority 2007, dated 2014)
Starred links: 1 amine or outer side, 2 acyl side, 3 side chain; linkers in the order of their positions; H or OH if unused. Non-standard residues stand in square brackets, D forms with d. Residues, ends and D or L forms follow the SMILES beside them. ξ: configuration not given here. *: point of attachment. ξNMeBip(2'-Et,4'-OMe) = CCc1cc(OC)ccc1-c1ccc(CC(NC)C(=O)O)cc1; X4 = CCc1cc(OC)ccc1-c1ccc(CC(CNC(CCCc2ccccc2F)C(N)=O)N*)cc1; ξBip(2'-Et-4'-OMe) = CCc1cc(OC)ccc1-c1ccc(CC(N)C(=O)O)cc1; X10 = O=C(C(CCCc1ccc(F)cc1F)N[*:1])[*:2]; X11 = CN(C(CCCc1ccccc1)C(=O)[*:2])[*:1]; ξαMePhe(2-F) = CC(N)(Cc1ccccc1F)C(=O)O; NMeD = CN[C@@H](CC(=O)O)C(=O)O; aThr = C[C@H](O)[C@H](N)C(=O)O; ξhhPhe = NC(CCCc1ccccc1)C(=O)O; ξαMeP = CC1(C(=O)O)CCCN1; Aib = CC(C)(N)C(=O)O; Moc = COC(=O)*

Legend:
Format in all cases: cell-based
[1] = system: RIN5F (Rat Insulinoma) cells; assay: In vitro glucose-dependent insulin secretion (RIN5F cell assay screening protocol); conditions: 16.7 mM glucose load
Description: RIN5F (Rat Insulinoma) cells were cultured in RPMI 1640 medium supplemented with sodium pyruvate (1 mM) HEPES and Glucose (4.5 g/L) in a humidified incubator (5% CO2), at 37° C. After trypsinization, RIN5F cells were seeded at a concentration of 0.2×10^6 cells per well, in 12 well plates.
The buffer was replaced after 40 min. and the cells were incubated (37° C.) with the test peptidomimetics, at different concentration, for 30 min., both in the presence (16.7 mM) and absence (0 mM) of glucose load. The supernatant was collected and the insulin amount was measured by ultra sensitive Rat insulin ELISA kit (Crystal Chem, IL). The protein was estimated in the supernatant using Bicinchoninic Acid kit, according to the manufacturer's protocol (Sigma Aldrich, MO). The total insulin content obtained in Pico-gram (pg) was divided with the total protein (μg) in order to normalize for differences in cell density between wells.

Human GLP-1 receptor = biological target: T1, Human GLP-1 receptor (Homo sapiens, UniProt P43220); assay: In vitro Human GLP-1 R agonist activity (cyclic AMP determination) in CHO/human GLP1R cells
T1 construct: The full-length cDNA was cloned in pcDNA3.1(+); expressed in transfected cells
T1 sequence (P43220 24-463): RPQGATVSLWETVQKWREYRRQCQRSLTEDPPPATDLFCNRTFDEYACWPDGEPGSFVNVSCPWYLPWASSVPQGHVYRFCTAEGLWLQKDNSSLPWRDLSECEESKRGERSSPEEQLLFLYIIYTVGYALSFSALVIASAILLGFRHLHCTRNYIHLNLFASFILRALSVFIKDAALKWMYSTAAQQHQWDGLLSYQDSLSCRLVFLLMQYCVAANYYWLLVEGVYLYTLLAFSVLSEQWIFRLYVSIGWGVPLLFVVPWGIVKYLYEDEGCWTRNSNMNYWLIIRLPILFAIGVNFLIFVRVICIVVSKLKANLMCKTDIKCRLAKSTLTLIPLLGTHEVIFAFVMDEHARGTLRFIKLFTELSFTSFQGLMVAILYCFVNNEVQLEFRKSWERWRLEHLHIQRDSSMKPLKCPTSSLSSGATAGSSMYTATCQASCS
Description: The novel peptidomimetics were screened for Human GLP-1 receptor (HGLP-1 R) agonist activity (in vitro), using the cAMP cell-based assay, in stably transfected CHO/human GLP1R cells. […] CHO cells were grown in Ham's F12 medium containing L-Glutamine (2 mM), HEPES (25 mM), NaHCO3 (1.1 g/L) and supplemented with NewBorn Calf Serum (NBCS; 10%), Penicillin (50 U/ml (v/v)) and Streptomycin (50 ug/ml (v/v)). Cells were split every 3 days 1:8.
The cDNA encoding the human GLP-1 receptor was isolated by RT-PCR according to standard protocol. The full-length cDNA was cloned in pcDNA3.1(+). […] Clones expressing the receptor were generated by G418 (800 μg/ml active, Sigma) selection. The stable clones were thereafter maintained at 500 ug/ml (G418). The selected clone was used between passages 9-25 for cAMP assays.
The trypsin was inactivated using Ham's F12 medium containing 10% NBCS and the cells were suspended in 2 ml of complete medium. […] The medium was aspirated off from the 12 well plate and the cells were washed once using Ham's F12 (plain). […] The cells were incubated with the test compounds for 30 min in humidified atmosphere and 37° C. After the incubation, the medium was removed and cells were washed once with plain Ham's F12. Subsequently, the cells were lysed by adding 500 ul of ice cold 0.1 N HCl to each well and shaking for 30 minutes at 200 rpm. The cells were then scrapped, the lysate was collected in micro centrifuge tubes and centrifuged at 12000 rpm for 10 min to remove the debris. 300 ul of supernatant from each micro-centrifuge tube was then removed into a glass tube and dried under N2 for 30 min, for cAMP estimation. The total cAMP was estimated from the sample according to the manufacturer's protocol using Cyclic AMP immunoassay kit (R&D systems, Minneapolis. MN). The remaining supernatant is used to determine the protein concentration using micro BCA (Sigma). Data is calculated as percent of control (Vehicle: water) and expressed as Mean±SD.

human glucagon receptor = biological target: T2, human glucagon receptor (Homo sapiens, UniProt P47871); assay: In vitro human glucagon antagonist activity (inhibition of cAMP production) in CHO/human glucagon R cells; conditions: with saturated concentration of glucagon peptide
T2 construct: The full-length cDNA was cloned in pcDNA3.1 (Invitrogen); expressed in transfected cells
T2 sequence (P47871 26-477): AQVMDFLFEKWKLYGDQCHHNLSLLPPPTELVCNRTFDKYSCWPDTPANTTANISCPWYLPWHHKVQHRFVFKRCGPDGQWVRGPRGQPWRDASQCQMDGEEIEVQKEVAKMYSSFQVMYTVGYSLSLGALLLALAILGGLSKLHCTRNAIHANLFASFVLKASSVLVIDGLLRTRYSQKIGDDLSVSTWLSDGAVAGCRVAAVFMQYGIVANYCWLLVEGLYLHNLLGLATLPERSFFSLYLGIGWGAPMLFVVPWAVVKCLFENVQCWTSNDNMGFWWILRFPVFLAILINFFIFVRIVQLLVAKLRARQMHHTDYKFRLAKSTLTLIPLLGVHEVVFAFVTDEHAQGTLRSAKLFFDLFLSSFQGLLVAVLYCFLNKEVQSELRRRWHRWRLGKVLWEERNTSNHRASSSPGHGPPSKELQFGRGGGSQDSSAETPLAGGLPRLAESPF
Description: The CHO-K1 cells (CRL 9618) were obtained from American Type Culture Collection (Rockville, Md.). CHO cells were grown in Ham's F12 medium containing L-Glutamine (2 mM), HEPES (25 mM), NaHCO3 (1.1 g/L) and supplemented with newborn Calf Serum (NBCS; 10%), Penicillin (50 U/ml (v/v)) and Streptomycin (50 ug/ml (v/v)). Cells were split every 3 days 1:8.
The full-length cDNA was cloned in pcDNA3.1 (Invitrogen). […] Clones expressing the receptor were generated by G418 (800 μg/ml active, Sigma) selection. The stable clones were thereafter maintained at 500 ug/ml (G418). The selected clone was used between passages 9-25 for cAMP assays.
The cells were trypsinized using 2 ml of TPVG (0.25% trypsin, 0.53 mM EDTA, 1.38-mM glucose). The trypsin was inactivated using Ham's F12 medium containing 10% NBCS and the cells were suspended in 2 ml of complete medium. […] The medium was aspirated off from the 12 well plate and the cells were washed once using Ham's F12 (plain). The cells were incubated at 37° C. with 500 ul of Ham's F12+1% BSA+0.125 mM RO-20 for 30 min. […] After the incubation, the medium was removed and cells were washed once with plain Ham's F12. Subsequently, the cells were lysed by adding 500 ul of ice cold 0.1 N HCl to each well and shaking for 30 minutes at 200 rpm. The cells were then scrapped, the lysate was collected in micro centrifuge tubes and centrifuged at 12000 rpm for 10 min to remove the debris. 300 ul of supernatant from each micro-centrifuge tube was then removed into a glass tube and dried under N2 for 30 min, for cAMP estimation. The total cAMP was estimated from the sample according to the manufacturer's protocol using Cyclic AMP immunoassay kit (R&D systems, Minneapolis. MN). The remaining supernatant is used to determine the protein concentration using micro BCA (Sigma). Data is calculated as percent of control (Vehicle: water) and expressed as Mean+SD.

Compound | Insulin secretion ([1]; 0.1 nM test compd.) [pg/µg/h] | Insulin secretion ([1]; 1 nM test compd.) [pg/µg/h] | Insulin secretion ([1]; 10 nM test compd.) [pg/µg/h] | Human GLP-1 R activity (cAMP release), % activity with respect to control (Human GLP-1 receptor; 1 nM test compound) [%] | Human GLP-1 R activity (cAMP release), % activity with respect to control (Human GLP-1 receptor; 10 nM test compound) [%] | Human GLP-1 R activity (cAMP release), % activity with respect to control (Human GLP-1 receptor; 100 nM test compound) [%] | Human GLP-1 R activity (cAMP release), % activity with respect to control (Human GLP-1 receptor; 1 μM test compound) [%] | Human GLP-1 R activity (cAMP release), % activity with respect to control (Human GLP-1 receptor; 10 μM test compound) [%] | Human Glucagon receptor antagonistic activity shown as inhibition of cAMP production of Glucagon peptide (human glucagon receptor; 1 nM test compound) [pmol/ml/μg prt] | Human Glucagon receptor antagonistic activity shown as inhibition of cAMP production of Glucagon peptide (human glucagon receptor; 10 nM test compound) [pmol/ml/μg prt] | Human Glucagon receptor antagonistic activity shown as inhibition of cAMP production of Glucagon peptide (human glucagon receptor; 100 nM test compound) [pmol/ml/μg prt] | Human Glucagon receptor antagonistic activity shown as inhibition of cAMP production of Glucagon peptide (human glucagon receptor; 1 μM test compound) [pmol/ml/μg prt] | Human Glucagon receptor antagonistic activity shown as inhibition of cAMP production of Glucagon peptide (human glucagon receptor; 10 μM test compound) [pmol/ml/μg prt]
CCc1cc(OC)ccc1-c1ccc(CC(NC(=O)[C@H](CC(=O)O)NC(=O)[C@H](CO)NC(=O)[C@@H](NC(=O)[C@H](Cc2ccccc2)NC(=O)[C@@H](NC(=O)CNC(=O)[C@H](CCC(N)=O)NC(=O)[C@H](CO)NC(=O)[C@@H](N)Cc2c[nH]cn2)[C@@H](C)O)[C@@H](C)O)C(=O)NC(CCCc2ccc(F)cc2F)C(N)=O)cc1 (some centres unmarked) [compound 46] (H-HSQGTFTSD[ξBip(2'-Et-4'-OMe)][X10]-NH2) | 12.7 ± 0.21 | 15.8 ± 0.33 | 29.3 ± 0.19 |  |  |  |  |  |  |  |  |  | 
CCc1cc(OC)ccc1-c1ccc(CC(NC(=O)[C@H](CC(=O)O)NC(=O)[C@H](CO)NC(=O)[C@@H](NC(=O)C(C)(Cc2ccccc2F)NC(=O)[C@@H](NC(=O)CNC(=O)[C@H](CC(C(F)(F)F)C(F)(F)F)NC(=O)C(C)(C)NC(=O)[C@@H](N)Cc2c[nH]cn2)[C@H](C)O)[C@H](C)O)C(=O)NC(CCCc2ccccc2)C(N)=O)cc1 (single isomer, unassigned) [compound 228] |  |  |  | 99 ± 0.11 | 99 ± 0.13 | 99 ± 0.16 | 99 ± 0.06 | 99 ± 0.10 |  |  |  |  | 
CCc1cc(OC)ccc1-c1ccc(CC(C(=O)N(C)C(CCCc2ccccc2)C(N)=O)N(C)C(=O)[C@H](CC(=O)O)N(C)C(=O)[C@H](CO)NC(=O)[C@@H](NC(=O)C(C)(Cc2ccccc2F)NC(=O)[C@@H](NC(=O)CNC(=O)[C@H](CCC(N)=O)NC(=O)C(C)(C)NC(=O)[C@H](Cc2c[nH]cn2)NC(=O)OC)[C@H](C)O)[C@H](C)O)cc1 (some centres unmarked) [compound 150] (Moc-H[Aib]QG[aThr][ξαMePhe(2-F)][aThr]S[NMeD][ξNMeBip(2'-Et,4'-OMe)][X11]-NH2) |  |  |  |  |  |  |  |  | 10 ± 0.12 | 8 ± 0.02 | 6 ± 0.04 | 4 ± 0.05 | 1 ± 0.02
CCc1cc(OC)ccc1-c1ccc(CC(CNC(CCCc2ccccc2F)C(N)=O)NC(=O)[C@H](CC(=O)O)NC(=O)[C@H](CO)NC(=O)[C@@H](NC(=O)C(C)(Cc2ccccc2F)NC(=O)[C@@H](NC(=O)CNC(=O)[C@H](CCC(N)=O)NC(=O)C(C)(C)NC(=O)[C@@H](N)Cc2c[nH]cn2)[C@H](C)O)[C@H](C)O)cc1 (some centres unmarked) [compound 191] (H-H[Aib]QG[aThr][ξαMePhe(2-F)][aThr]SD-X4) |  |  |  |  |  |  |  |  | 4 ± 0.05 | 2 ± 0.13 | 2 ± 0.12 | 0 | 0
CCc1cc(OC)ccc1-c1ccc(CC(CNC(CCCc2ccccc2F)C(N)=O)NC[C@H](CC(=O)O)NC(=O)[C@H](CO)NC(=O)[C@@H](NC(=O)C(C)(Cc2ccccc2F)NC(=O)[C@@H](NC(=O)CNC(=O)[C@H](CCC(N)=O)NC(=O)C(C)(C)NC(=O)[C@H](Cc2c[nH]cn2)NC(=O)OC)[C@@H](C)O)[C@@H](C)O)cc1 (single isomer, unassigned) [compound 196] |  |  |  | 39 ± 0.10 | 81 ± 0.08 | 89 ± 0.09 | 96 ± 0.11 | 99 ± 0.16 |  |  |  |  | 
CCc1cc(OC)ccc1-c1ccc(CC(CNC(CCCc2ccccc2F)C(N)=O)NC(=O)[C@H](CC(=O)O)NC(=O)[C@H](CO)NC(=O)[C@@H](NC(=O)C(C)(Cc2ccccc2F)NC(=O)[C@@H](NC(=O)CNC(=O)[C@H](CCC(N)=O)NC(=O)C(C)(C)NC(=O)[C@H](Cc2c[nH]cn2)NC(=O)OC)[C@H](C)O)[C@H](C)O)cc1 (single isomer, unassigned) [compound 188] |  |  |  |  |  |  |  |  | 5 ± 0.04 | 3 ± 0.15 | 1 ± 0.15 | 0 | 0
CCc1cc(OC)ccc1-c1ccc(CC(NC(=O)[C@H](CC(=O)O)NC(=O)[C@H](CO)NC(=O)[C@@H](NC(=O)[C@H](Cc2ccccc2)NC(=O)[C@@H](NC(=O)CNC(=O)[C@H](CCC(N)=O)NC(=O)C2(C)CCCN2C(=O)[C@@H](N)Cc2c[nH]cn2)[C@@H](C)O)[C@@H](C)O)C(=O)NC(CCCc2ccccc2)C(N)=O)cc1 (some centres unmarked) [compound 9] (H-H[ξαMeP]QGTFTSD[ξBip(2'-Et-4'-OMe)][ξhhPhe]-NH2) |  |  |  |  |  |  |  |  | 5 ± 0.02 | 3 ± 0.15 | 0 | 0 | 0
CCc1cc(OC)ccc1-c1ccc(CC(NC(=O)[C@H](CC(=O)O)NC(=O)[C@H](CO)NC(=O)[C@@H](NC(=O)[C@H](Cc2ccccc2)NC(=O)[C@@H](NC(=O)CNC(=O)[C@H](CCC(N)=O)NC(=O)C2(NC(=O)[C@@H](N)Cc3c[nH]cn3)CCCC2)[C@@H](C)O)[C@@H](C)O)C(=O)NC(CCCc2ccc(Cl)cc2C)C(N)=O)cc1 (single isomer, unassigned) [compound 28] |  |  |  |  |  |  |  |  | 14 ± 0.02 | 11 ± 0.03 | 7 ± 0.22 | 3 ± 0.12 | 0
